Laboratory results reported in patent US12428417B2, “Inhibitors of macrophage migration inhibitory factor” (The Brigham and Women's Hospital, Inc., priority 2019, dated 2025).

Tests used:
[1] = system: P. falciparum strain NF54 attB parasites; assay: Invasion assay: synchronized late-stage schizonts added to uninfected RBCs, parasitemia measured by FACS; assay type: cell-based
Procedure: Experimental protocol: Synchronized late-stage schizonts were added at 1% initial parasitemia to uninfected recipient normal RBCs and parasitemia was measured by FACS. Parasitemia is normalized to the control no-inhibitor condition. Data analyzed by one-way ANOVA. Statistically significant differences are indicated with a star over the bar. Asterisk (*) indicates p<0.01 compared to control (no-inhibitor).
FIG. 2 describes results of invasion assay in presence of titrated amounts of MIF inhibitors. […] All data is normalized to the control no-inhibitor condition. […] Asterisk (*) indicates p<0.01 compared to control (no-inhibitor).
(§1) P. falciparum strain NF54 attB parasites (Dr. Niles, MIT). Synchronized late-stage schizonts were added at 1% initial parasitemia to uninfected recipient normal RBCs and parasitemia was measured by FACS (FIG. 2). […] Given that ibudilast has inhibitory effect on the function of MIF as well as phosphodiesterase 4 (PDE4) in the RBC, it was evaluated whether specific inhibitors of MIF and PDE4 would cause major decline in parasitemia at similar dosages. While inhibition of parasite growth was not observed due to abolishing the function of PDE4 (data not shown), inhibition of the tautomerase activity of MIF in vitro by an irreversible inhibitor of MIF—4-IPP—caused a significant decline in the levels of parasitemia (FIG. 2).

[2] = system: P. falciparum infected RBC cultures; assay: FACS analysis of infected RBC cultures (schizont stage); assay type: cell-based; conditions: 48 to 60 hours post infection; data not shown
Procedure: as §1

Pf-infected RBCs = assay: Confocal microscopy of Pf-infected RBCs with BODIPY TR lipophilic intracellular staining (egress); assay type: cell-based, P. falciparum; conditions: treated Pf-infected RBCs; FIG. 3
Text: One plane of confocal microscopy z-stack is shown.

Molecule: COC(=O)CC1CC(c2ccc(O)cc2)=NO1 (stereo not shown) [ISO-1]
- invasion at a range of concentrations ([1]; data not shown): did not reduce the invasion

Molecule: Ic1cc(-c2ccccc2)ncn1 [Example 4-IPP]
- percentage of mature schizont [2]: significant increase
- state of mature schizonts (egress) (Pf-infected RBCs): mature schizonts remain encapsulated
- parasitemia in vitro ([1]; 1% initial parasitemia, normal RBCs, FIG. 2): significantly lowered parasitemia
- parasitemia after removal of inhibitor 6 h post-infection ([1]; inhibitor removed 6 h post-infection): did not recover the parasitemia
- parasitemia after treating only the recipient RBCs before infection ([1]; recipient RBCs treated 3 h and 6 h, inhibitor washed off before infection): parasitemia at the level of the control condition

B1: hu-MIF: exogenous human macrophage migration inhibitory factor added in the invasion assay (protein, UniProt P14174 2-115, looked up)
Macrophage migration …: PMFIVNTNVPRASVPDGFLSELTQQLAQATGKPPQYIAVHVVPDQLMAFGGSSEPCALCSLHSIGKIGGAQNRSYSKLLCGLLAERLRISPDRVYINYYDMNAANVGWNNSTFA
- parasitemia in presence of exogenous protein ([1]; cells preincubated for up to 6 h, data not shown): did not show reduced or increased parasitemia
